{"source": "paper PMC6253949", "about": "“The Inhibitory Action of Kohamaic Acid A Derivatives on Mammalian DNA Polymerase β” (Molecules, 2008)", "assay_type_in_all_cases": "biochemical", "key": {"T7 RNA polymerase": {"molecular_target": "T1, T7 RNA polymerase (Escherichia phage T7, UniProt P00573)", "T1 construct": "purchased Takara (Kyoto, Japan)", "T1 sequence (P00573 whole entry)": "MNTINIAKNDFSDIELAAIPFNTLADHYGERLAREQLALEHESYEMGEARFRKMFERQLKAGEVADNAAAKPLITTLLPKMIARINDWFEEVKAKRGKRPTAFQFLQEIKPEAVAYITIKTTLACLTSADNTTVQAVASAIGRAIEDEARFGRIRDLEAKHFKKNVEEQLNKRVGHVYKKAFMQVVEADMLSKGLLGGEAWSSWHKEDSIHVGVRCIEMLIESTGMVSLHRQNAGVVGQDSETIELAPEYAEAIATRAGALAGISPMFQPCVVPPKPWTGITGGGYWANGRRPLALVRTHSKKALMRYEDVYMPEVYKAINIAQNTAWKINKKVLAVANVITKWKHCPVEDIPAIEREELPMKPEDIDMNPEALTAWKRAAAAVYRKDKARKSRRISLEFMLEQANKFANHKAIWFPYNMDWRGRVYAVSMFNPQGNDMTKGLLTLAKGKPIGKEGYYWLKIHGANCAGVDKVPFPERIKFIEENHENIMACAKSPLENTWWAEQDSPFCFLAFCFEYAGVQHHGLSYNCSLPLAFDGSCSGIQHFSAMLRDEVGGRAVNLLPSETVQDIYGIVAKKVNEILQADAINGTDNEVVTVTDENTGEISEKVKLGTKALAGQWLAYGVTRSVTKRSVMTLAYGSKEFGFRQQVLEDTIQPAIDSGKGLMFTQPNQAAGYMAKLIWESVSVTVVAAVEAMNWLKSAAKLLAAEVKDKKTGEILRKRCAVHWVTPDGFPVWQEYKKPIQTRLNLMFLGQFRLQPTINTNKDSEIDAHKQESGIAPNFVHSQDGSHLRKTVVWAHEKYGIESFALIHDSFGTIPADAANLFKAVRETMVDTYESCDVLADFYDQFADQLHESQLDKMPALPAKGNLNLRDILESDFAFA", "assay": "T7 RNA polymerase assay", "text": "(§1) Pol α was purified from calf thymus by immuno-affinity column chromatography as described by Tamai et al.. Recombinant rat pol β was purified from E. coli JMpβ5 as described by Date et al.. The human pol γ catalytic gene was cloned into pFastBac. Histidine-tagged enzyme was expressed using the BAC-TO-BAC HT Baculovirus Expression System according to the supplier's manual (LIFE TECHNOLOGIES, MD, USA) and purified using ProBoundresin (Invitrogen Japan, Tokyo, Japan). Human pols δ and ε were purified by the nuclear fractionation of human peripheral blood cancer cells (Molt-4) using the second subunit of pols δ and ε-conjugated affinity column chromatography, respectively. Recombinant human pols η and ι tagged with His6 at their C-terminal were expressed in SF9 insect cells using the baculovirus expression system, and were purified as described previously. A truncated form of pol κ (i.e., hDINB1DC) with 6 x His-tags attached at the C-terminal was overproduced using the BAC-to-BAC Baculovirus Expression System kit (GIBCO BRL, MD, USA) and purified as described previously. […]\n(§2) The primase activity of calf pol α, the activities of T7 RNA polymerase, T4 polynucleotide kinase and bovine DNase I were measured in standard assays according to the manufacturer's specifications as described by Tamiya-Koizumi et al., Nakayama et al., Soltis et al., and Lu and Sakaguchi, respectively."}, "T4 Polynucleotide kinase": {"molecular_target": "T2, T4 Polynucleotide kinase (Enterobacteria phage T4, UniProt P06855)", "T2 construct": "purchased Takara (Kyoto, Japan)", "T2 sequence (P06855 whole entry)": "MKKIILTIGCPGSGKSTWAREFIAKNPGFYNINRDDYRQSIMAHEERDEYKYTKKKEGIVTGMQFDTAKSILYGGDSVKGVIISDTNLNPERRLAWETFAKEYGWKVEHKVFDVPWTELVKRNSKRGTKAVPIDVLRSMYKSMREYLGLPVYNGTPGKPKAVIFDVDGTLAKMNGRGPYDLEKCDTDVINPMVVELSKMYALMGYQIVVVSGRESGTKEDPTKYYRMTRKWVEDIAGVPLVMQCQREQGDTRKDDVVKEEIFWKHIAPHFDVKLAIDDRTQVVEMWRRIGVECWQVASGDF", "assay": "T4 polynucleotide kinase assay", "text": "as §1, §2"}, "Rat DNA polymerase β": {"molecular_target": "T3, Rat DNA polymerase β (Rattus norvegicus, UniProt P06766)", "T3 construct": "made in house; host or cells: E. coli JMpβ5", "assay": "DNA polymerase assay, rat pol β", "conditions": "for Inhibitory mode: Lineweaver Burk plot", "text": "Pol α was purified from calf thymus by immuno-affinity column chromatography as described by Tamai et al.. Recombinant rat pol β was purified from E. coli JMpβ5 as described by Date et al.. The human pol γ catalytic gene was cloned into pFastBac. Histidine-tagged enzyme was expressed using the BAC-TO-BAC HT Baculovirus Expression System according to the supplier's manual (LIFE TECHNOLOGIES, MD, USA) and purified using ProBoundresin (Invitrogen Japan, Tokyo, Japan). Human pols δ and ε were purified by the nuclear fractionation of human peripheral blood cancer cells (Molt-4) using the second subunit of pols δ and ε-conjugated affinity column chromatography, respectively. Recombinant human pols η and ι tagged with His6 at their C-terminal were expressed in SF9 insect cells using the baculovirus expression system, and were purified as described previously. A truncated form of pol κ (i.e., hDINB1DC) with 6 x His-tags attached at the C-terminal was overproduced using the BAC-to-BAC Baculovirus Expression System kit (GIBCO BRL, MD, USA) and purified as described previously. Recombinant human His-pol λ was overexpressed and purified according to a method described previously. Fish pol δ was purified from the testis of cherry salmon (Oncorhynchus masou). Pol I (α-like) from a higher plant, cauliflower inflorescence, was purified according to the methods outlined by Sakaguchi et al.. The Klenow fragment of pol I from E. coli was purchased from Worthington Biochemical Corp. (Freehold, NJ, USA). Taq pol, T4 pol, T7 RNA polymerase and T4 polynucleotide kinase were purchased from Takara (Kyoto, Japan). Bovine pancreas deoxyribonuclease I (DNase I) was obtained from Stratagene Cloning Systems (La Jolla, CA, USA).\nThe reaction mixtures for pol α, pol β, fish pol δ, plant pol I (α-like) and prokaryotic pols were described previously, and those for pol γ, and pols δ and ε were as described by Umeda et al. and Ogawa et al., respectively. The reaction mixtures for pols η, ι and κ were the same as for pol α, and the reaction mixture for pol λ was the same as that for pol β.\nFor pols, poly(dA)/oligo(dT)12-18 (A/T = 2/1) and dTTP were used as the DNA template-primer and nucleotide (i.e., dNTP) substrate, respectively. KA-A analogues (i.e., compounds 1–12) were dissolved in distilled dimethyl sulfoxide (DMSO) at various concentrations and sonicated for 30 sec. Aliquots of 4 μL of sonicated samples were mixed with 16 μL of each enzyme (final amount 0.05 units) in 50 mM Tris-HCl (pH 7.5) containing 1 mM dithiothreitol, 50% glycerol and 0.1 mM EDTA, and kept at 0 °C for 10 min. These inhibitor-enzyme mixtures (8 μl) were added to 16 μL of each of the enzyme standard reaction mixtures, and incubation was carried out at 37 °C for 60 min, except for Taq pol, which was incubated at 74 °C for 60 min. Activity without the inhibitor was considered 100%, and the remaining activity at each concentration of the inhibitor was determined relative to this value. One unit of pol activity was defined as the amount of enzyme that catalyzed the incorporation of 1 nmol of dNTP (i.e., dTTP) into synthetic DNA template-primers in 60 min at 37 °C under the normal reaction conditions for each enzyme."}, "T4 DNA polymerase": {"molecular_target": "T4, T4 DNA polymerase (Enterobacteria phage T4, UniProt P04415)", "T4 construct": "purchased Takara (Kyoto, Japan)", "T4 sequence (P04415 1-898)": "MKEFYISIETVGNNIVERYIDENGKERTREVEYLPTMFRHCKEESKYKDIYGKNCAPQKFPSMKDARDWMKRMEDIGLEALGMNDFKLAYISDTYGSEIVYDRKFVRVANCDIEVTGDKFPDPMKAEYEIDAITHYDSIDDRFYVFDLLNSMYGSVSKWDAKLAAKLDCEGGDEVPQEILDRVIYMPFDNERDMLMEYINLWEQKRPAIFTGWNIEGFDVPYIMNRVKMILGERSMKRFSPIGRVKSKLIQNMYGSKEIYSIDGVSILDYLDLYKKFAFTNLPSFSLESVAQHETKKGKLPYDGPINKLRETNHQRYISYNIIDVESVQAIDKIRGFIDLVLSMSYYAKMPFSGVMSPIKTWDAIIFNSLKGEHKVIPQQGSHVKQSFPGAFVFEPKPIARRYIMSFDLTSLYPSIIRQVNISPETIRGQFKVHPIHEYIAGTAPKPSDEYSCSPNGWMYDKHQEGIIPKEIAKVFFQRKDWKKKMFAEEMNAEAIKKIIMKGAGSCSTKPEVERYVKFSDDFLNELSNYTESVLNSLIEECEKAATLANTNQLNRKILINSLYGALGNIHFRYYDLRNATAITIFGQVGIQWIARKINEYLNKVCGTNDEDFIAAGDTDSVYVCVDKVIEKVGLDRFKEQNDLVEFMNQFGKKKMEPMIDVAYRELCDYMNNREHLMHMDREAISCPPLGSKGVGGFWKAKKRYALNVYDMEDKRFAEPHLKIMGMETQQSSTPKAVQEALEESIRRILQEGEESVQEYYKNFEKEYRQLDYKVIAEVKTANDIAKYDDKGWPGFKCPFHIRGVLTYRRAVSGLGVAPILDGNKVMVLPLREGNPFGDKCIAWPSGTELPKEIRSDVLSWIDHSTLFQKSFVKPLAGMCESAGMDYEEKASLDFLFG", "assay": "DNA polymerase assay, T4 pol", "text": "as §1\nFor pols, poly(dA)/oligo(dT)12-18 (A/T = 2/1) and dTTP were used as the DNA template-primer and nucleotide (i.e., dNTP) substrate, respectively. […] Activity without the inhibitor was considered 100%, and the remaining activity at each concentration of the inhibitor was determined relative to this value. […]"}}, "data": [{"smiles": "CC1=CC[C@H]2C(C)(C)CCC[C@]2(C)[C@H]1CCCCCCCCCCCCCCCCC(=O)O", "note": "(relative stereo) [compound 11, (1S*,4aS*,8aS*)-17-(1,4,4a,5,6,7,8,8a-octahydro-2,5,5,8a-tetramethylnaphthalen-1-yl)heptadecanoic acid]", "values": [{"measurement": "Influence on T7 RNA polymerase activity", "setting": "T7 RNA polymerase", "value": "not influenced"}, {"measurement": "IC50", "setting": "T4 Polynucleotide kinase", "value": "> 200", "unit": "µM"}, {"measurement": "Relative activity of pol β", "setting": "Rat DNA polymerase β; 10 μM compound 11", "value": "15.5 ± 0.78", "unit": "%"}, {"measurement": "Relative activity of pol β", "setting": "Rat DNA polymerase β; 10 μM compound 11 + 50 μM poly (rC)", "value": "15.2 ± 0.74", "unit": "%"}, {"measurement": "Relative activity of pol β", "setting": "Rat DNA polymerase β; 10 μM compound 11 + 200 μg/ml BSA", "value": "15.9 ± 1.1", "unit": "%"}, {"measurement": "Relative activity of pol β", "setting": "Rat DNA polymerase β; 10 μM compound 11 + 0.05 % NP-40", "value": "96.1 ± 7.6", "unit": "%"}, {"measurement": "Relative activity of pol β", "setting": "Rat DNA polymerase β; 10 μM compound 11 + 0.1 % NP-40", "value": "100 ± 8.8", "unit": "%"}, {"measurement": "Relative activity of pol β", "setting": "Rat DNA polymerase β; 100 μM compound 11", "value": "3.2 ± 0.16", "unit": "%"}, {"measurement": "Relative activity of pol β", "setting": "Rat DNA polymerase β; 100 μM compound 11 + 50 μM poly (rC)", "value": "3.1 ± 0.15", "unit": "%"}, {"measurement": "Relative activity of pol β", "setting": "Rat DNA polymerase β; 100 μM compound 11 + 200 μg/ml BSA", "value": "3.3 ± 0.19", "unit": "%"}, {"measurement": "Relative activity of pol β", "setting": "Rat DNA polymerase β; 100 μM compound 11 + 0.05 % NP-40", "value": "62.5 ± 4.1", "unit": "%"}, {"measurement": "Relative activity of pol β", "setting": "Rat DNA polymerase β; 100 μM compound 11 + 0.1 % NP-40", "value": "95.0 ± 7.6", "unit": "%"}, {"measurement": "Inhibitory effect on pol β compared with KA-A", "setting": "Rat DNA polymerase β; 10 and 100 μM of compound (Figure 2B)", "value": "strongest inhibitory effect"}, {"measurement": "Ki", "setting": "Rat DNA polymerase β; DNA template-primer poly(dA)/oligo(dT)12-18, Dixon plot", "value": 1.96, "unit": "µM"}, {"measurement": "Vmax", "setting": "Rat DNA polymerase β; DNA template-primer poly(dA)/oligo(dT)12-18, unchanged at 0-9 μM compound 11", "value": 111, "unit": "pmol/h"}, {"measurement": "fold stronger pol β inhibitor than dideoxyTTP", "setting": "Rat DNA polymerase β; comparison with dideoxyTTP", "value": 4, "unit": "fold"}, {"measurement": "Ki", "setting": "Rat DNA polymerase β; nucleotide substrate dTTP, Dixon plot", "value": 2.36, "unit": "µM"}, {"measurement": "Vmax", "setting": "Rat DNA polymerase β; nucleotide substrate dTTP, unchanged at 0-9 μM compound 11", "value": 62.5, "unit": "pmol/h"}, {"measurement": "IC50", "setting": "Rat DNA polymerase β; poly(dA)/oligo(dT)12-18 and dTTP, 0.05 units enzyme", "value": "5.5 ± 0.28", "unit": "µM"}, {"measurement": "Inhibitory mode", "setting": "Rat DNA polymerase β; with respect to DNA template-primer", "value": "Competitive"}, {"measurement": "Inhibitory mode", "setting": "Rat DNA polymerase β; with respect to dNTP substrate", "value": "Competitive"}, {"measurement": "IC50", "setting": "T4 DNA polymerase", "value": "> 200", "unit": "µM"}]}]}
